As a reminder, the IC50 is the concentration that inhibits the measured activity by half.

The structures appear in SMILES notation.

From US20080200448A1, “New Pyridine Analogues VIII 518” (ASTRAZENECA AB, priority 2007, published 2008) come the findings set out here.

The target of one assay is T1, P2Y12 receptor (Homo sapiens, UniProt Q9H244).
T1 construct: expressed in transfected cells; host or cells: CHO cells (membrane preparation)
T1 sequence (Q9H244 whole entry): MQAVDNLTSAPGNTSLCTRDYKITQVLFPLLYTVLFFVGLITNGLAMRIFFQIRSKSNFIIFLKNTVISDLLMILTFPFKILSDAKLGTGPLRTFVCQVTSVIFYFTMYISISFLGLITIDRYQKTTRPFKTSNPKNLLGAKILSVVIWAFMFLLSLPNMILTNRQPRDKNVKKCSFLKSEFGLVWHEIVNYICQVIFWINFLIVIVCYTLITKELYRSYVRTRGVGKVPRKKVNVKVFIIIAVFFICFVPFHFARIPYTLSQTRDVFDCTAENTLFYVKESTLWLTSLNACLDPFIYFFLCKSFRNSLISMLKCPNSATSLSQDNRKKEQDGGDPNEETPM
As to the kind of experiment: Functional inhibition of 2-Me-S-ADP induced P2Y12 signalling (35S-GTPγS binding, cell membranes). The following applies: 35S-GTPγS assay, membranes, EC80 concentration of 2-methyl-thio-adenosine diphosphate, 30° C. for 45 min; read-out: GTPγS (IC50 μM). It is filed as biochemical. The procedure:
Functional inhibition of- the P2Y12 receptor can be measured by in vitro assays using cell membranes from P2Y12 transfected CHO-cells, the methodology is indicated below.
Functional inhibition of 2-Me-S-ADP induced P2Y12 signalling: 5 μg of membranes were diluted in 200 μl of 200 mM NaCl, 1 mM MgCl2, 50 mM HEPES (pH 7.4), 0.01% BSA, 30 μg/ml saponin and 10 μM GDP. To this was added an EC80 concentration of agonist (2-methyl-thio-adenosine diphosphate), the required concentration of test compound and 0.1 μCi ^35S-GTPγS. The reaction was allowed to proceed at 30° C. for 45 min. Samples were then transferred on to GF/B filters using a cell harvester and washed with wash buffer (50 mM Tris (pH 7.4), 5 mM MgCl2, 50 mM NaCl). Filters were then covered with scintilant and counted for the amount of ^35S-GTPγS retained by the filter. Maximum activity was that determined in the presence of the agonist and minimum activity in the absence of the agonist following subtraction of the value determined for non-specific activity. The effect of compounds at various concentrations was plotted according to the equation
y=A+((B−A)/(1+((C/x)̂D)))
and IC50 estimated where A is the bottom plateau of the curve i.e. the final minimum y value B is the top of the plateau of the curve i.e. the final maximum y value C is the x value at the middle of the curve. This represents the log EC50 value when A+B=100 D is the slope factor. x is the original known x values. Y is the original known y values.
A general note: GTPγS resists hydrolysis and so accumulates on activated G proteins.
In the case of `CCOC(=O)CCc1nc(N2CCC(C(=O)NS(=O)(=O)Cc3ccccc3)CC2)c(C#N)cc1C(=O)OCC` [Example 107, Ethyl 6-{4-[(benzylsulfonyl)carbamoyl]piperidin-1-yl}-5-cyano-2-(3-ethoxy-3-oxopropyl)nicotinate], the half-maximal inhibitory concentration (IC50) was 0.056 µM.
Still for that read-out and setting: the value for `CCOC(=O)CSCc1nc(N2CCC(C(=O)NS(=O)(=O)Cc3ccccc3)CC2)c(C#N)cc1C(=O)OCC` [Example 122, Ethyl 6-{4-[(benzylsulfonyl)carbamoyl]piperidin-1-yl}-5-cyano-2-{[(2-ethoxy-2-oxoethyl)thio]methyl}nicotinate] was 0.077 µM.
With `CCOC(=O)c1cc(C#N)c(N2CCC(C(=O)NS(=O)(=O)Cc3ccc(SC(F)(F)F)cc3)CC2)nc1CN1CCCC1=O` [Example 66, Ethyl 5-cyano-2-[(2-oxopyrrolidin-1-yl)methyl]-6-{4-[({4-[(trifluoromethyl)thio]benzyl}sulfonyl)carbamoyl]piperidin-1-yl}nicotinate], the IC50 stood at 0.033 µM.
`CC(C)OC(=O)c1cc(C#N)c(N2CCC(C(=O)NS(=O)(=O)CC3CCCC3)CC2)nc1CN1CCCC1=O` [Example 47, Isopropyl 5-cyano-6-(4-{[(cyclopentylmethyl)sulfonyl]carbamoyl}piperidin-1-yl)-2-[(2-oxopyrrolidin-1-yl)methyl]nicotinate]: the IC50 amounted to 0.065 µM.
Still for that read-out and setting: the same measure for `CCOC(=O)c1cc(C#N)c(N2CCC(C(=O)NS(=O)(=O)Cc3ccc(Cl)cc3Cl)CC2)nc1CN1CCCC1=O` [Example 41, Ethyl 5-cyano-6-(4-{[(2,4-dichlorobenzyl)sulfonyl]carbamoyl}piperidin-1-yl)-2-[(2-oxopyrrolidin-1-yl)methyl]nicotinate]: 0.016 µM; for `CC(C)OC(=O)c1cc(C#N)c(N2CCC(C(=O)NS(=O)(=O)Cc3ccccc3)CC2)nc1CN1CCCCC1=O` [Example 70, Isopropyl 6-{4-[(benzylsulfonyl)carbamoyl]piperidin-1-yl}-5-cyano-2-[(2-oxopiperidin-1-yl)methyl]nicotinate]: 0.102 µM; for `CCOC(=O)c1cc(C#N)c(N2CCC(C(=O)NS(=O)(=O)CC3CCCC3)CC2)nc1CN1CCCC1=O` [Example 36, Ethyl 5-cyano-6-(4-{[(cyclopentylmethyl)sulfonyl]carbamoyl}piperidin-1-yl)-2-[(2-oxopyrrolidin-1-yl)methyl]nicotinate]: 0.017 µM.
Take `CCOC(=O)c1cc(C#N)c(N2CCC(C(=O)NS(=O)(=O)Cc3ccccc3)CC2)nc1CN(C)C` [Example 4, Ethyl 6-{4-[(benzylsulfonyl)carbamoyl]piperidin-1-yl}-5-cyano-2-[(dimethylamino)methyl]nicotinate]: the IC50 was 0.282 µM.
Still for that read-out and setting: the same measure for `CC(C)OC(=O)c1cc(C#N)c(N2CCC(C(=O)NS(=O)(=O)Cc3ccc(F)cc3)CC2)nc1CN1CCCC1=O` [Example 51, Isopropyl 5-cyano-6-(4-{[(4-fluorobenzyl)sulfonyl]carbamoyl}piperidin-1-yl)-2-[(2-oxopyrrolidin-1-yl)methyl]nicotinate]: 0.023 µM; for `CC(C)OC(=O)c1cc(C#N)c(N2CCC(C(=O)NS(=O)(=O)Cc3ccccc3)CC2)nc1CN1CCCC1=O` [Example 34, Isopropyl 6-{4-[(benzylsulfonyl)carbamoyl]piperidin-1-yl}-5-cyano-2-[(2-oxopyrrolidin-1-yl)methyl]nicotinate]: 0.033 µM.
As for `CCOC(=O)c1cc(C#N)c(N2CCC(C(=O)NS(=O)(=O)Cc3ccc(C(C)(C)C)cc3)CC2)nc1CN1CCCCC1=O` [Example 103, Ethyl 6-(4-{[(4-tert-butylbenzyl)sulfonyl]carbamoyl}piperidin-1-yl)-5-cyano-2-[(2-oxopiperidin-1-yl)methyl]nicotinate], the IC50 is 0.376 µM.
The same measure, in the same setting: the same measure for `CCOC(=O)c1cc(C#N)c(N2CCC(C(=O)NS(=O)(=O)CC3CCOCC3)CC2)nc1CN1CCCC1=O` [Example 72, Ethyl 5-cyano-2-[(2-oxopyrrolidin-1-yl)methyl]-6-(4-{[(tetrahydro-2H-pyran-4-ylmethyl)sulfonyl]carbamoyl}piperidin-1-yl)nicotinate]: 0.725 µM.

The same assay, now with this note: functional inhibition of 2-Me-S-ADP induced P2Y12 signalling; membranes from P2Y12 transfected CHO-cells; EC80 concentration of agonist; read-out: IC50.
Regarding `CCOC(=O)c1cc(C#N)c(N2CCC(C(=O)NS(=O)(=O)Cc3ccccc3)CC2)nc1CN(C)C` [Example 4, Ethyl 6-{4-[(benzylsulfonyl)carbamoyl]piperidin-1-yl}-5-cyano-2-[(dimethylamino)methyl]nicotinate], the IC50 came to 0.28 µM.
